From US12157743B2, “Solid forms of Alpha-1062 gluconate” (priority 2021, dated 2024)
Entries after “also recorded” stand apart in the source; their conditions may differ.

Tests used:
[1] = Polymorph screen: ambient slurries of Form A in solvents, XRPD; assay type: physicochemical; conditions: 14 d
Protocol: A polymorph screening study was initiated to investigate the presence and identity of various solid materials that may be possible for Alpha-1062 Gluconate. This study used lot CA19-1144 as the starting material and utilized various solvent systems and conditions to isolate and study the materials produced during the studies (Table 5). The various materials were analyzed by XRPD and the various solid forms identified as shown (FIG. 6).

[2] = Dynamic vapor sorption (DVS) isotherm; assay type: physicochemical; conditions: for DVS hysteresis: 5 to 95 to 5% RH; for XRPD of post DVS sample (solid form): material recovered after DVS cycle ending at 5% RH
From the text: As used herein, DVS (Dynamic Vapor Sorption) is a gravimetric technique to measure the rate and amount of absorption of a solvent by a sample under controlled conditions. […]

[3] = Water activity (aw) slurries in mixed aqueous/organic solvent systems, XRPD; assay type: physicochemical; conditions: for Result (solid form after slurry): ambient; for Water activity at which the form is the most stable form: from water activity slurries and RH stressing, Form C: above 0.12 aw up to the value
From the text: (§1) To investigate the stability of the four pure crystalline forms of Alpha-1062 Gluconate, water activity (aw) slurries using a variety of mixed aqueous/organic solvent systems (Table 6) along with relative humidity stressing (Table 7) were used to define the regions of stability for the given hydrates of Alpha-1062 Gluconate.

[4] = Relative humidity stressing of solid samples, XRPD; assay type: physicochemical
From the text: as §1

[5] = Heat / vacuum stressing analysed by XRPD; assay type: physicochemical
Protocol: Form B: Alpha-1062 Gluconate, Sample 8235-82-08 (Table 10). Form B is a tetrahydrate crystalline lattice. It appears that at least one of the four water sites in the crystal lattice is somewhat labile. […] The formula unit volume of 772 Å^3 calculated from the indexing results is larger than Form A by 84 Å^3. […] A broad endotherm with an onset of 66° C. (concurrent with weight loss in the TGA) is observed in the DSC consistent with desolvation. […] Upon desorption, 1.8% weight loss from 95-15% RH followed by 6.8% weight loss from 15-5% RH was observed. The DVS data was corrected for water content measured by KF at 57% RH (FIG. 18). A stable plateau of between 3.6 and 3.9 mol/mol of water for Form B is evident between 15 and 85% RH.
Form C: Alpha-1062 Gluconate, Sample 8235-87-02 (Table 11). Form C was determined to be a monohydrate crystal lattice occupied at only about 0.4 to 0.5 mol/mol of water. […] The XRPD pattern was successfully indexed by a single primitive monoclinic unit cell. The formula unit volume of 706 Å^3 calculated from the indexing results is larger than Form A by 18 Å^3. […] An endotherm with an onset of 119° C. is observed in the DSC. • Form C (sample 8235-92-04) was held at 11% RH for seven days and analyzed by XRPD and DSC for comparison (sample 8296-08-01). […] The DVS data was corrected for water content measured by KF at 11% RH (FIG. 25). […]

[6] = Storage and XRPD reanalysis; assay type: physicochemical; conditions: reanalyzed
From the text: Material G: Alpha-1062 Gluconate, Samples 8235-87-01 and 8235-100-02 (Table 15). Material G has been observed from evaporative experiments of both 1,4-dioxane and THF. […] Based on the spontaneous conversion, Material G is metastable with Form B at that condition. Material G was not observed during any of the water activity slurries or relative humidity work.
Amorphous: Alpha-1062 Gluconate, sample 8235-76-13 (Table 16) has been observed from slow evaporation from methanol (Table 5). […] No significant impurity increases were observed by ^1H NMR. • Thermal Analysis (FIG. 35). A cyclic DSC was conducted to determine the glass transition (Tg) temperature of the amorphous solid. The glass transition temperature was determined to be near 41° C. Decomposition was observed upon continued heating with no nucleation.

[7] = steady-state, human brain vs blood; cited from earlier work
[8] = IPA/H2O 97:03 v/v, 0.31 aw, 13 d
[9] = MEK/H2O 98:02 v/v, 0.42 aw, 13 d
[10] = water activity slurries and RH stressing

In the case of `COc1ccc2c3c1O[C@H]1C[C@@H](OC(=O)c4ccccc4)C=C[C@@]31CCN(C)C2.O=C(O)C(O)C(O)C(O)C(O)CO` [Form A, Alpha-1062 gluconate], the “Result (solid form after slurry)” value ([1]; EtOH) is reported as “C + A”, the “Result (solid form after slurry)” value ([1]; acetone) is reported as “C + D” and the “Hygroscopicity (DVS assessment)” value [2] is reported as “significant hygroscopicity above 75% RH”. For the same molecule, the DVS hysteresis [2] was “Hysteresis was observed”, the DVS hysteresis ([2]; listed as CA19-1144) was “hysteresis observed” and the DVS wt. gain ([2]; from 5 to 75% RH (sorption)) was 0.57 % wt. For the same molecule, the DVS wt. gain ([2]; from 5 to 75% RH (sorption), listed as CA19-1144) was 0.57% wt. gain from 5 to 75% RH, the DVS wt. gain ([2]; from 75 to 85% RH (sorption)) was 2.97 % wt and the DVS wt. gain ([2]; from 75 to 85% RH (sorption), listed as CA19-1144) was 2.96% wt. gain from 75 to 85% RH. The DVS wt. loss ([2]; from 85 to 5% RH (desorption)) was 2.98% wt. loss from 85 to 5% RH, the DVS wt. gain ([2]; from 85 to 95% RH (sorption)) was 8.7 % wt and the DVS wt. gain ([2]; from 85 to 95% RH (sorption), listed as CA19-1144) was 8.67% wt. gain from 85 to 95% RH. For the same molecule, the DVS wt. loss ([2]; from 95 to 85% RH (desorption)) was 1.73% wt. loss from 95 to 85% RH, the “XRPD of post DVS sample (solid form)” value [2] was “Form A+minor peaks of Form B” and the “XRPD of post DVS sample (solid form)” value ([2]; listed as CA19-1144) was “Form A + B (trace)”. For the same molecule, the “Water gain at stable desorption plateau” value ([2]; weight within stable plateau on desorption) was “more than 3 mol/mol”, the “Result (solid form after slurry)” value ([3]; MEK/H2O 98:02 v/v, 0.42 aw, 1 d) was “C + B” and the “Result (solid form after slurry)” value ([3]; MEK/H2O 98:02 v/v, 0.42 aw, 2 d) was “C + B”. For the same molecule, the “Result (solid form after slurry)” value ([3]; MEK/H2O 99:01 v/v, 0.27 aw, 7 d) was “C + A”, the “Water activity at which the form is the most stable form” value [3] was “less than 0.12 aw” and the “Result (solid form by XRPD)” value ([4]; 43% RH, 5 d) was “kinetically stable”. The “Result (solid form by XRPD)” value ([4]; 75% RH, 1 d) was “D + minor A” and the “Result (solid form by XRPD)” value ([4]; 75% RH, 2 d) was “D + minor B”.
With `COc1ccc2c3c1O[C@H]1C[C@@H](OC(=O)c4ccccc4)C=C[C@@]31CCN(C)C2.O=C(O)C(O)C(O)C(O)C(O)CO` [Form B, Alpha-1062 gluconate] the “Solid form by XRPD after heating” value ([5]; 40-75° C., 10 min (in DSC)) was “partial dehydration and conversion to a mixture of Forms D and C; also recorded: Form D + C + peak”, the “Hygroscopicity (DVS assessment)” value [2] was “limited hygroscopicity” and the DVS wt. loss ([2]; from 15-5% RH (desorption)) was 6.8% wet loss from 15-5% RH % wt. For the same molecule, the “XRPD of post DVS sample (solid form)” value [2] was “anhydrous Form A”, the “Result (solid form after slurry)” value [3, 8] was “C + B” and the “Result (solid form after slurry)” value [3, 9] was “C + B”. For the same molecule, the “Water activity at which the form is the most stable form” value [3] was “Above 0.5 aw”, the “Water activity of solvent systems in which the form was observed” value ([3]; in equilibrium Form B/Form C between 0.31 and 0.52 aw) was “above 0.52 aw” and the “Result (solid form by XRPD)” value ([4]; 0% RH, P2O5, 1 d) was “dehydrate to Form A”. For the same molecule, the “Result (solid form by XRPD)” value ([4]; 57% RH, 4 d) was “remained Form B”.
With `COc1ccc2c3c1O[C@H]1C[C@@H](OC(=O)c4ccccc4)C=C[C@@]31CCN(C)C2.O=C(O)C(O)C(O)C(O)C(O)CO` [Form C + B, Alpha-1062 gluconate] the “Result (solid form by XRPD)” value ([4]; 0% RH, P2O5, 1 d) was “C+ A”.
In the case of `COc1ccc2c3c1O[C@H]1C[C@@H](OC(=O)c4ccccc4)C=C[C@@]31CCN(C)C2.O=C(O)C(O)C(O)C(O)C(O)CO` [Form C, Alpha-1062 gluconate], the “Solid form by XRPD after vacuum storage” value ([5]; vacuum, 45° C., 3 hrs) is reported as “remained Form C with the presence of a minor amount of Form A”, the “Hygroscopicity (DVS assessment)” value [2] is reported as “significant hygroscopicity above 75% RH” and the DVS hysteresis [2] is reported as “hysteresis observed”. The “Water retained after DVS” value ([2]; DVS corrected for KF water content at 11% RH) was roughly 1.4 mol/mol, the DVS wt. gain ([2]; from 5-65% RH (sorption)) was 0% wt. gain from 5-65% RH and the DVS wt. gain ([2]; from 5 to 75% RH (sorption)) was “no significant weight gain”. The DVS wt. retained ([2]; from 75-5% RH (desorption)) was ~3% wt. retained from 75-5% RH, the “XRPD of post DVS sample (solid form)” value [2] was “mixture of Forms C and B; also recorded: Form C + B” and the “Result (solid form after slurry)” value [3, 8] was “C + B”. For the same molecule, the “Result (solid form after slurry)” value [3, 9] was “C + B”, the “Water activity at which the form is the most stable form” value [3] was “up to 0.5 aw” and the “Result (solid form by XRPD)” value ([4]; 0% RH, P2O5, 1 d) was “C + minor A”. For the same molecule, the “Result (solid form by XRPD)” value ([4]; 11% RH, 4 d) was “remained Form C” and the “Result (solid form by XRPD)” value ([4]; 11% RH, 7 d) was “remained Form C”.
For `COc1ccc2c3c1O[C@H]1C[C@@H](OC(=O)c4ccccc4)C=C[C@@]31CCN(C)C2.O=C(O)C(O)C(O)C(O)C(O)CO` [Form D + A, Alpha-1062 gluconate], the “Result (solid form by XRPD)” value ([4]; 75% RH, 4 d) was “B + D”.
For `COc1ccc2c3c1O[C@H]1C[C@@H](OC(=O)c4ccccc4)C=C[C@@]31CCN(C)C2.O=C(O)C(O)C(O)C(O)C(O)CO` [Form D + B, Alpha-1062 gluconate], the “Result (solid form by XRPD)” value ([4]; 75% RH, 1 d) was “D + B”.
In the case of `COc1ccc2c3c1O[C@H]1C[C@@H](OC(=O)c4ccccc4)C=C[C@@]31CCN(C)C2.O=C(O)C(O)C(O)C(O)C(O)CO` [Form D, Alpha-1062 gluconate], the “Result (solid form after slurry)” value [3, 8] is reported as “C + B”, the “Result (solid form after slurry)” value [3, 9] is reported as “C + B” and the “Water activity at which the form is the most stable form” value [3] is reported as “does not appear stable at any of the conditions evaluated”. The “Result (solid form by XRPD)” value ([4]; 75% RH, 1 d) was “Form D + minor B”, the “Relative humidity at which the form converts to Form C” value [4, 10] was less than 52 % RH and the “Relative humidity of extended exposure at which the form converts to Form B” value [4, 10] was no less than 52 % RH.
With `COc1ccc2c3c1O[C@H]1C[C@@H](OC(=O)c4ccccc4)C=C[C@@]31CCN(C)C2.O=C(O)C(O)C(O)C(O)C(O)CO` [Forms B + D, Alpha-1062 gluconate] the “Result (solid form after slurry)” value ([3]; MEK/H2O 97:03 v/v, 0.52 aw, 7 d) was “B + C”.
With `COc1ccc2c3c1O[C@H]1C[C@@H](OC(=O)c4ccccc4)C=C[C@@]31CCN(C)C2.O=C(O)C(O)C(O)C(O)C(O)CO` [Material G, Alpha-1062 gluconate] the “Solid form by XRPD on reanalysis” value ([6]; 5 weeks) was “partially converted to Form B; also recorded: Material G + Form B”.
With `COc1ccc2c3c1O[C@H]1C[C@@H](OC(=O)c4ccccc4)C=C[C@@]31CCN(C)C2.O=C(O)C(O)C(O)C(O)C(O)CO` [amorphous Alpha-1062 Gluconate, Alpha-1062 gluconate] the “Solid form by XRPD on reanalysis” value ([6]; 5 weeks) was “amorphous”, the “Solid form by XRPD on reanalysis” value ([6]; 5 weeks, listed as Amorphous) was “remain amorphous” and the “Solid form by XRPD on reanalysis” value ([6]; 13 days) was “Form B + C”. For the same molecule, the “Solid form by XRPD on reanalysis” value ([6]; 13 days, listed as Amorphous) was “spontaneously crystallized to a mixture of Forms B and C”.
In the case of `COc1ccc2c3c1O[C@H]1C[C@@H](O)C=C[C@@]31CCN(C)C2` [galantamine], the “brain-to-blood concentration ratio (BBCR)” value [7] is listed as less than 2.
